Source: US20250051338A1, “TYK2 DEGRADERS AND USES THEREOF” (Kymera Therapeutics, Inc., priority 2021, published 2025)

Experiments:
Format in all cases: cell-based
[1] = target: T1, TYK2 (Homo sapiens, UniProt P29597); assay: TYK2 degradation MSD assay in human PBMC cells; parameters: endogenous in cells; host or cells: human PBMC; details: 4 to 24 hours incubation, read-out: TYK2 MSD DC50 rating in human PBMC
Method in brief: (§1)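 TYK2 levels in lysed cells, detected via antibody capture and SULFO-TAG electrochemiluminescence, were compared across a nine-point threefold compound dilution (highest 1 to 10 μM) after 4–24 h culture at 37° C under 5% CO2. Four-parameter nonlinear regression of the dose response yielded DC50.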

[2] = target: T1, TYK2; assay: TYK2 degradation MSD assay in OCI-LY10 cells; parameters: endogenous in cells; host or cells: EBV-B cells; details: 4 to 24 hours incubation, read-out: TYK2 MSD DC50 rating in OCI-LY10
Method in brief: as §1

[3] = target: T1, TYK2; assay: TYK2 degradation MSD assay in EBV-B cells; parameters: endogenous in cells; host or cells: EBV-B cells; details: 4 to 24 hours incubation, read-out: TYK2 MSD DC50 rating in EBV-B
Method in brief: as §1

T1 sequence (P29597 whole entry): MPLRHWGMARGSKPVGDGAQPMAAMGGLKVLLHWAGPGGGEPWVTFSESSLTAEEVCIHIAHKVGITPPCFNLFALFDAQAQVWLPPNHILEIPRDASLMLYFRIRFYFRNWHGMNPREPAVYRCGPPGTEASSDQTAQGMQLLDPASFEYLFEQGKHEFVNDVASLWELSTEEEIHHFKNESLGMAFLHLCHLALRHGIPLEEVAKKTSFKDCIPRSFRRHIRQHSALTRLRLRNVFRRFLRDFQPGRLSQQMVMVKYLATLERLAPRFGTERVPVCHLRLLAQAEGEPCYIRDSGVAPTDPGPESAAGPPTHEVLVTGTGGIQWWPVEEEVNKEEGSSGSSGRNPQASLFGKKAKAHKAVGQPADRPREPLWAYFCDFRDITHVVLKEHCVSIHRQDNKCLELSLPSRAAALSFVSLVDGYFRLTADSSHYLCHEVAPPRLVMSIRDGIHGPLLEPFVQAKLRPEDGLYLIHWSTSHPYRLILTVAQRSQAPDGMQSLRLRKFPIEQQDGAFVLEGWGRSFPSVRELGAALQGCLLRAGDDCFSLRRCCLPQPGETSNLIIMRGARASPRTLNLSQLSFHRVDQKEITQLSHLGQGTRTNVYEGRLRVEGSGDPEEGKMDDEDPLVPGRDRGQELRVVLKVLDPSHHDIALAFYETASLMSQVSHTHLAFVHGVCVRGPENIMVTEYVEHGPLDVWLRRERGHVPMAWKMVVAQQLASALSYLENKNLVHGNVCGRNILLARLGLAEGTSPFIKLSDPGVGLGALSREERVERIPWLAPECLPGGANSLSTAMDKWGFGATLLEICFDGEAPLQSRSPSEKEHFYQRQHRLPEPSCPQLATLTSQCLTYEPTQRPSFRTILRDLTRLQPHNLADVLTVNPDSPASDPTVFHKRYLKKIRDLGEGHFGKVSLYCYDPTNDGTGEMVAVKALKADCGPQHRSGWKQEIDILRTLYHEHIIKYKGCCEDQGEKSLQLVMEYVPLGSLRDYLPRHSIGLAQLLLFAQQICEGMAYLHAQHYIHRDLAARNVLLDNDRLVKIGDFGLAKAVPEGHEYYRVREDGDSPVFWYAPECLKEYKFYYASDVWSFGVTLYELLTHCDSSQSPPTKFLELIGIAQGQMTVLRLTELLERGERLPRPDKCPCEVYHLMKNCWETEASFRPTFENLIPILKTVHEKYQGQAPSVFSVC

Structure (SMILES)	DC50 [1]	DC50 [2]	DC50 [3]
CNc1cc(N2CCc3c(-c4cc(N5CCN(c6ccc7c(c6)n(C)c(=O)n7C6CCC(=O)NC6=O)CC5)ccn4)cccc32)nn2c(C(=O)C[C@@H]3C[C@@H]3F)cnc12 (stereo partly drawn) [Example K652]	> 100 nM	> 100 nM	> 100 nM
CNc1cc(N2CCc3c(-c4cc(N5CCN(c6cccc7c6n(C)c(=O)n7C6CCC(=O)NC6=O)CC5)ccn4)cccc32)nn2c(C(=O)N[C@@H]3C[C@@H]3F)cnc12 (stereo partly drawn) [Example K653]	> 100 nM	> 100 nM	> 100 nM
CNc1cc(N2CCc3c(-c4cc(N5CCN(CC6CCN(c7cccc8c7n(C)c(=O)n8C7CCC(=O)NC7=O)CC6)CC5)ccn4)cccc32)nn2c(C(=O)NC3CC3F)cnc12 (stereo not drawn) [Example K656]	> 100 nM	1 to 10 nM	> 100 nM
CNc1cc(N2CCc3c(-c4cc(CN5CCN(c6ccc7c(c6)n(C)c(=O)n7C6CCC(=O)NC6=O)CC5)ccn4)cccc32)nn2c(C(=O)NC3CC3F)cnc12 (stereo not drawn) [Example K657]	> 100 nM	< 1 nM	> 100 nM
CNc1cc(N2CCc3c(-c4cc(CN5CCN(c6ccc(-c7ccc8c(c7)n(C)c(=O)n8C7CCC(=O)NC7=O)cc6)CC5)ccn4)cccc32)nn2c(C(=O)N[C@@H]3C[C@@H]3F)cnc12 (stereo partly drawn) [Example K658]	> 100 nM	1 to 10 nM	> 100 nM
CNc1cc(Nc2cccnc2OCC2CCN(C3CCN(c4ccc5c(c4)n(C)c(=O)n5C4CCC(=O)NC4=O)CC3)CC2)nn2c(C(=O)NC3CC3F)cnc12 (stereo not drawn) [Example K659]	> 100 nM	1 to 10 nM	> 100 nM
CNc1cc(Nc2cccc(-c3ccc(CN4CCC(N5CCN(c6ccc7c(c6)n(C)c(=O)n7C6CCC(=O)NC6=O)CC5)C(F)(F)C4)cn3)c2OC)nn2c(C(=O)NC3CC3F)cnc12 (stereo not drawn) [Example K660]	> 100 nM	< 1 nM	> 100 nM
CNC(=O)c1cnc(Nc2ccc(CN3CCC(N(C)c4cccc5c4n(C)c(=O)n5C4CCC(=O)NC4=O)CC3)cn2)cc1Nc1cccc(-c2ncc(F)cn2)c1OC (stereo not drawn) [Example K700]	< 1 nM	< 1 nM	> 100 nM
CNC(=O)c1cnc(Nc2ccc(CN3CCN(CC#Cc4ccc5c(c4)n(C)c(=O)n5C4CCC(=O)NC4=O)CC3)cn2)cc1Nc1cccc(-c2ncc(F)cn2)c1OC (stereo not drawn) [Example K701]	< 1 nM	< 1 nM	> 100 nM
CNC(=O)c1cnc(Nc2ccc(N3CCN(c4cccc5c4n(C)c(=O)n5C4CCC(=O)NC4=O)CC3)cn2)cc1Nc1cccc(-c2ncc(F)cn2)c1OC (stereo not drawn) [Example K702]	> 100 nM	> 100 nM	1 to 10 nM
CNC(=O)c1cnc(Nc2ccc(C3CN(Cc4cccc5c4n(C)c(=O)n5C4CCC(=O)NC4=O)C3)cn2)cc1Nc1cccc(-c2ncc(F)cn2)c1OC (stereo not drawn) [Example K703]	> 100 nM	> 100 nM	< 1 nM
CNC(=O)c1cnc(Nc2ccc(CN(C)C3CCN(c4cccc5c4n(C)c(=O)n5C4CCC(=O)NC4=O)CC3)cn2)cc1Nc1cccc(-c2ncc(F)cn2)c1OC (stereo not drawn) [Example K704]	> 100 nM	< 1 nM	< 1 nM
CNC(=O)c1cnc(Nc2ccc(CN3CCC(N(C)c4cccc5c4n(C)c(=O)n5C4CCC(=O)NC4=O)C3)cn2)cc1Nc1cccc(-c2ncc(F)cn2)c1OC (stereo not drawn) [Example K705]	> 100 nM	> 100 nM	< 1 nM
CNC(=O)c1cnc(Nc2ccc(C(=O)NCCCCc3ccc4c(c3)n(C)c(=O)n4C3CCC(=O)NC3=O)cn2)cc1Nc1ccccc1OC (stereo not drawn) [Example K706]	> 100 nM	> 100 nM	> 100 nM
CNC(=O)c1cnc(Nc2ccc(C3CN(Cc4ccc5c(c4)n(C)c(=O)n5C4CCC(=O)NC4=O)C3)cn2)cc1Nc1cccc(-c2ncc(F)cn2)c1OC (stereo not drawn) [Example K707]	> 100 nM	> 100 nM	1 to 10 nM
CNC(=O)c1cnc(Nc2ccc(CN3CCC(OCC#Cc4ccc5c(c4)n(C)c(=O)n5C4CCC(=O)NC4=O)CC3)cn2)cc1Nc1cccc(-c2ncc(F)cn2)c1OC (stereo not drawn) [Example K708]	> 100 nM	> 100 nM	< 1 nM
CCNC(=O)c1cnc(Nc2cc(CN3CCN(c4ccc5c(c4)n(C)c(=O)n5C4CCC(=O)NC4=O)CC3)ccn2)cc1Nc1cccc(-c2ncc(F)cn2)c1OC (stereo not drawn) [Example K709]	> 100 nM	> 100 nM	1 to 10 nM
[2H]C([2H])([2H])NC(=O)c1nnc(Nc2ccc(C(=O)N(C)C3CCN(c4cccc5c4n(C)c(=O)n5C4CCC(=O)NC4=O)CC3)cn2)cc1Nc1cccc(F)c1OC (stereo not drawn) [Example K710]	> 100 nM	> 100 nM	< 1 nM
[2H]C([2H])([2H])NC(=O)c1nnc(Nc2ccc(CN3CCN(c4ccc5c(c4)n(C)c(=O)n5C4CCC(=O)NC4=O)CC3)cn2)cc1Nc1cccc(F)c1OC (stereo not drawn) [Example K711]	> 100 nM	> 100 nM	> 100 nM
[2H]C([2H])([2H])NC(=O)c1nnc(Nc2ccc(CN(C)CC3CCN(c4ccc5c(c4)n(C)c(=O)n5C4CCC(=O)NC4=O)CC3)cn2)cc1Nc1cccc(F)c1OC (stereo not drawn) [Example K712]	> 100 nM	> 100 nM	< 1 nM
